Test results: patent US20080153838A1, “Compounds Having Tie2 (Tek) Activity” (ASTRAZENECA AB, priority 2005, published 2008)

Assays:
[1] = molecular target: T1, Tie2 receptor tyrosine kinase (Homo sapiens, UniProt Q02763); experiment: Cellular Tie2 autophosphorylation assay (Test (b)); type: cell-based; design: one can use natural cell lines or primary cells which are known to express the receptor of choice; endogenous in cells; host or cells: EA.hy926/B3 cells (HUVEC named as alternative); details: Ang1 ligand stimulated whole cells (e.g. EA.hy926/B3); read-out: IC50 (μM) Test (b): Inhibition of autophosphorylation of Tie2 receptor tyrosine kinase
Description: b. Cellular Tie2 Autophosphorylation Assay
This assay is based on measuring the ability of compounds to inhibit autophosphorylation of the Tie2 receptor which normally leads to the production of “activated” receptor that in turn initiates the particular signal transduction pathways associated with the receptor function.
Autophosphorylation can be achieved by a number of means. It is known that expression of recombinant kinase domains in baculoviral systems can lead to the production of phosphorylated and activated receptor. It is also reported that over expression of receptors in recombinant cell lines can itself lead to receptor autophosphorylation in the absence of the ligand (Heldin C-H. 1995 Cell: 80, 213-223; Blume-J. P, Hunter T. 2001 Nature: 411, 355-65). Furthermore, there are numerous literature examples in which chimaeric receptors have been constructed. In these cases the natural, external cell surface domain of the receptor has been replaced with that of a domain which is known to be readily dimerised via the addition of the appropriate ligand (e.g. TrkA-Tie2/NGF ligand (Marron, M. B., et al., 2000 Journal of Biological Chemistry: 275:39741-39746) or C-fms-Tie-1/CSF-1 ligand (Kontos, C. D., et al., 2002 Molecular and Cellular Biology: 22, 1704-1713). Thus when the chimaeric receptor expressed in a host cell line and the respective ligand is added, this induces autophosphorylation of the chimeric receptor's kinase domain. This approach has the advantage of often allowing a known (and often easily obtained) ligand to be used instead of having to identify and isolate the natural ligand for each receptor of interest.
Naturally if the ligand is available one can use natural cell lines or primary cells which are known to express the receptor of choice and simply stimulate with ligand to achieve ligand induced phosphorylation. […]
Target sequence in this assay (Q02763 23-1124): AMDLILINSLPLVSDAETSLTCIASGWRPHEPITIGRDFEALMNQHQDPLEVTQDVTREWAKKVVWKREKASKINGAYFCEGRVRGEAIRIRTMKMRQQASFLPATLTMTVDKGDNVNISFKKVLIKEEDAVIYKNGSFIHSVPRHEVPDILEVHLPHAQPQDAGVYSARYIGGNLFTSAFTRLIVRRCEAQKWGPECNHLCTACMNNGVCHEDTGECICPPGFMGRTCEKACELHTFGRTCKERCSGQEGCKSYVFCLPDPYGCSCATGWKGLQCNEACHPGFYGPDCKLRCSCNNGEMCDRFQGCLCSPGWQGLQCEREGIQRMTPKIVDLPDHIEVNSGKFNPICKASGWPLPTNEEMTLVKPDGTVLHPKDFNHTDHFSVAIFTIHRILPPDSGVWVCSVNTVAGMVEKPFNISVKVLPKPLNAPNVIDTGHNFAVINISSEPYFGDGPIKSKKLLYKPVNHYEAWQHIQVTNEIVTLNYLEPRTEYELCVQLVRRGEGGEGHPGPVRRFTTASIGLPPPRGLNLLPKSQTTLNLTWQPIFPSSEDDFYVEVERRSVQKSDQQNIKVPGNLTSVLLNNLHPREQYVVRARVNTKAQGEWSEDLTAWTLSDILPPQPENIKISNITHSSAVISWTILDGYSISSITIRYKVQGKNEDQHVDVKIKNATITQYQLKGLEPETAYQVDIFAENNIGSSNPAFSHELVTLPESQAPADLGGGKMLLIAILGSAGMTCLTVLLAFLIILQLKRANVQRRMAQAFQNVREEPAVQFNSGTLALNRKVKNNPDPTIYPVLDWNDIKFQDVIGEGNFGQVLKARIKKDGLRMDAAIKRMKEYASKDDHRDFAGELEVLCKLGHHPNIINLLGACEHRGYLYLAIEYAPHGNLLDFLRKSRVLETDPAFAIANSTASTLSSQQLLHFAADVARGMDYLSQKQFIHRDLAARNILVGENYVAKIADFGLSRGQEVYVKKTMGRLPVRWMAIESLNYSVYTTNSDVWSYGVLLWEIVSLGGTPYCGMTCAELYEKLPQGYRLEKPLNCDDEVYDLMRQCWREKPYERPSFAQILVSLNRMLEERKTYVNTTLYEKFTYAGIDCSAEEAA

[2] = molecular target: T1, Tie2 receptor tyrosine kinase; experiment: In vitro receptor tyrosine kinase inhibition assay (ELISA, Test (a)); type: biochemical; design: consist of only the intracellular portion C-terminal portion of the respective receptor, within which is found the kinase domain; made in house; host or cells: baculovirus/Sf21 insect cells; cleared lysate used without purification; details: recombinant human Tie2 kinase domain, peptide substrate
Experimental: a. In Vitro Receptor Tyrosine Kinase Inhibition Assay
To test for inhibition of Tie2 receptor tyrosine kinase, compounds are evaluated in a non-cell based protein kinase assay by their ability to inhibit the protein kinase enzyme phosphorylation of a tyrosine containing polypeptide substrate in an ELISA based microtitre plate assay. In this particular case, the assay was to determine the IC50, for three different recombinant human tyrosine kinases Tie2, KDR and Flt.
To facilitate production of the tyrosine kinases, recombinant receptor genes were produced using standard molecular biology cloning and mutagenesis techniques. These recombinant proteins fragments encoded within these genes consist of only the intracellular portion C-terminal portion of the respective receptor, within which is found the kinase domain. The recombinant genes encoding the kinase domain containing fragments were cloned and expressed in standard baculovirus/Sf21 system (or alternative equivalent). […]
Constitutive kinase activity of these recombinant proteins was determined by their ability to phosphorylate a synthetic peptide (made up of a random co-polymer of Glutamic Acid, Alanine and Tyrosine in the ratio of 6:3:1). […]
The immobilised phospho-peptide product of the reaction was detected by immunological methods. […] Following extensive washing with PBS-T, HRP activity in each well of the plate was measured […] using 22′-Azino-di-[3-ethylbenzthiazoline sulfonate (6)] diammonium salt crystals ABTS (Sigma P4922—prepared as per manufactures instructions) as a substrate incubated for 30-45 minutes to allow colour development, before 100 ul of 1M H2SO4 was added to stop the reaction.
Quantification of colour development and thus enzyme activity was achieved by the measurement of absorbance at 405 nm on a Molecular Devices ThermoMax microplate reader. Kinase inhibition for a given compound was expressed as an IC50 value. […] The range of phosphorylation was calculated from the positive (vehicle plus ATP) and negative (vehicle minus ATP) control values.
Target sequence in this assay (Q02763 770-1124 limits assumed): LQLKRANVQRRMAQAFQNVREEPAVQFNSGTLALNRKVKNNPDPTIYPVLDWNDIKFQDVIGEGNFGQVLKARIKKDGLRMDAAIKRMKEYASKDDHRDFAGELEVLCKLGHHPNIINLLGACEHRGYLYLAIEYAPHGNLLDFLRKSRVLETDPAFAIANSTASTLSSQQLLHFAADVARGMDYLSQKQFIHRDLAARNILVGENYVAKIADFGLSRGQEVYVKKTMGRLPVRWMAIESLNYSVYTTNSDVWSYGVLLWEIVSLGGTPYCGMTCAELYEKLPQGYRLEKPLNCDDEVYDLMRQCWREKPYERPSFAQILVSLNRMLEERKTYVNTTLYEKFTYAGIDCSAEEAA

Row | IC50 [1] | IC50 [2] | Compound
1 | 0.02 µM | 4.4 µM | CC(C)(C)c1cc(NC(=O)Nc2cccc(C#Cc3cnc(N)cn3)c2)no1 [Example 5, N-{3-[(5-aminopyrazin-2-yl)ethynyl]phenyl}-N′-(5-tert-butylisoxazol-3-yl)urea]
2 | 0.031 µM | 2.6 µM | CC(C)(C)c1cc(NC(=O)Nc2cccc(C#Cc3ccc(N)nc3)c2)no1 [Example 2, N-{3-[(6-aminopyridin-3-yl)ethynyl]phenyl}-N′-(5-tert-butylisoxazol-3-yl)urea]
3 | 0.077 µM | 8.2 µM | CC(C)(C)c1cc(NC(=O)Nc2cccc(C#Cc3cccnc3N)c2)no1 [Example 3, N-2{3-[(2-aminopyridin-3-yl)ethynyl]phenyl}-N′-(5-tert-butylisoxazol-3-yl)urea]
